Among the data in ChEMBL document CHEMBL1123613, “2,4-Diamino-6,7-dimethoxyquinazolines. 3. 2-(4-Heterocyclylpiperazin-1-yl) derivatives as alpha 1-adrenoceptor antagonists and antihypertensive agents” (J Med Chem, 1987) are Displacement, Reduction and Ki values, retold here.

The target of test [1] is T1, Adrenergic receptor alpha-2 (Rattus norvegicus) (UniProt P22086+P19328+P22909). Put plainly: Percent displacement of [3H]clonidine to alpha-2-adrenoceptor was determined in rat brain homogenates at 10E-6 M. Format: tissue-based. For orientation: Loss of bound radioactivity is the signal in a displacement assay; it reports binding, not function.
Test [2] deals with Rattus norvegicus. Put plainly: Antihypertensive activity was determined by percent reduction in blood pressure after 6 hr upon peroral administration of 5 mg/kg dose in spontaneously hypertensive rats(SHR). Format: functional. The conditions noted are these: route oral.
Test [3] deals with T2, Adrenergic receptor alpha-1 (Rattus norvegicus, UniProt P15823+P23944+P43140).
T2 sequence (P15823 whole entry): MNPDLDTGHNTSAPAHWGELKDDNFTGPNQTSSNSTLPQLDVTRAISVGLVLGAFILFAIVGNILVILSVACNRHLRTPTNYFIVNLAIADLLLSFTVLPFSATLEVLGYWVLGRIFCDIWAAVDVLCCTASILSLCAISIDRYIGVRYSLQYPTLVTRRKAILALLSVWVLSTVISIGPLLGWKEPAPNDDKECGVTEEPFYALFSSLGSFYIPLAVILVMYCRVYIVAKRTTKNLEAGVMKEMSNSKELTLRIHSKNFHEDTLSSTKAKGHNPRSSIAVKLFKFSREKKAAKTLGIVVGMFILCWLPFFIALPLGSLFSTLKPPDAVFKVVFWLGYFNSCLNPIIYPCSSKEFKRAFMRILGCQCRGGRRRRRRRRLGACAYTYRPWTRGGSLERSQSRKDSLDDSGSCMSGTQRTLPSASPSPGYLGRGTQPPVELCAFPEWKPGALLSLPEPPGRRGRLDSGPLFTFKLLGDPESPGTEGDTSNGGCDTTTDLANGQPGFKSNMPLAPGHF
T2 sequence (P23944 whole entry): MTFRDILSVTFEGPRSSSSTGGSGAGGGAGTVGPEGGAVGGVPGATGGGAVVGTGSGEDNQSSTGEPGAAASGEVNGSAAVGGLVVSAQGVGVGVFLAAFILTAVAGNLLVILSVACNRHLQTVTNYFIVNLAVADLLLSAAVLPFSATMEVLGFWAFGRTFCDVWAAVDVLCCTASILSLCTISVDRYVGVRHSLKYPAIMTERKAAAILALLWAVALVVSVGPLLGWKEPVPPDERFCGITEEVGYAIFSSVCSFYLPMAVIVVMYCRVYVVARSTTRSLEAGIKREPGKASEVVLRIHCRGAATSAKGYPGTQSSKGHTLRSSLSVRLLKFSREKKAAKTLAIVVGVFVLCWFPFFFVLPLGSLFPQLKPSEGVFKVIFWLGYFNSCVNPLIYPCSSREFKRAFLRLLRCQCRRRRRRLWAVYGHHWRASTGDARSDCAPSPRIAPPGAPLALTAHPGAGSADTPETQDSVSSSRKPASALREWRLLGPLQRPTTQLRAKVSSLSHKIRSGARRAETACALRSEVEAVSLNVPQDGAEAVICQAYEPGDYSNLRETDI
T2 sequence (P43140 whole entry): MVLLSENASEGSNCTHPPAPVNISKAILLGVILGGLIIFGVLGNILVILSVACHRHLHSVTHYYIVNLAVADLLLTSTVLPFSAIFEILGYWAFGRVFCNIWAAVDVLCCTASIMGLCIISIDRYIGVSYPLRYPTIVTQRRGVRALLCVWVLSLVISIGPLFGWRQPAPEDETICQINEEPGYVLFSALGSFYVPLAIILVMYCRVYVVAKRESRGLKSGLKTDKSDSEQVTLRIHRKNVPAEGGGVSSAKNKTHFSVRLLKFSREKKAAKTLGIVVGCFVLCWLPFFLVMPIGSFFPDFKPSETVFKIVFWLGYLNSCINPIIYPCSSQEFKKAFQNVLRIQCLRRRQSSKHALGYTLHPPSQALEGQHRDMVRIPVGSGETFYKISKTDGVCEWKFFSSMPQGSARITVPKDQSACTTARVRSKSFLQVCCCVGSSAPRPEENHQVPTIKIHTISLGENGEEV
Put plainly: Binding affinity against alpha-1-adrenoceptor in rat brain homogenates [3H]-prazosin displacement. Format: tissue-based.

For test [4], the system named is Rattus norvegicus. The test is described as follows: Antihypertensive activity was determined by percent reduction in blood pressure after 1 hr upon peroral administration of 5 mg/kg dose in spontaneously hypertensive rats(SHR). Format: functional. The following applies: route oral.
The target in test [5] is T1, Adrenergic receptor alpha-2 (Rattus norvegicus). The test is described as follows: Percent displacement of [3H]clonidine from alpha-2-adrenoceptor in rat brain homogenates at 10E-6 M; Activity of less than 50%. Format: tissue-based.
Test [6] relates to Rattus norvegicus. The test is described as follows: Antihypertensive activity was determined by percent reduction in blood pressure after 4 hr upon peroral administration of 3 mg/kg dose in spontaneously hypertensive rats(SHR). Format: functional. The following applies: route oral.
The subject of test [7] is Rattus norvegicus. The test is described as follows: Antihypertensive activity was determined by percent reduction in blood pressure after 1 hr upon peroral administration of 5 mg/kg dose in spontaneously hypertensive rats(SHR); not significant because of blood pressure falls below 10%. Format: functional. The conditions noted are these: route oral.
Test [8] relates to Rattus norvegicus. Put plainly: Antihypertensive activity was determined by percent reduction in blood pressure after 6 hr upon peroral administration of 5 mg/kg dose in spontaneously hypertensive rats(SHR); not significant because of blood pressure falls below 10%. The following applies: route oral. Format: functional.

Structures are written as SMILES. Active and inactive are the calls of the source. No cut-off for these calls is given here.

As usually defined, the Ki is the equilibrium dissociation constant of an inhibitor or competing ligand from its target. Low values mean tighter binding, high ones weaker binding. `COc1cc(N2CCN(c3nc(N)c4cc(OC)c(OC)cc4n3)CC2)nc(OC)n1` registered a Displacement in test [1] of 54.2%. In addition, the results for the Reduction with Rattus norvegicus [2] and in the test with Rattus norvegicus [4] were 20% and 22%, respectively. Further, the Ki in test [3] came out at 0.16 nM.

Consider `COc1cc2nc(N3CCN(c4nccc(C)n4)CC3)nc(N)c2cc1OC`, for which the Reduction in the test with Rattus norvegicus [2] came to 15%; in the test on Rattus norvegicus [4] it was 28%. The same compound gave a Ki in test [3] of 0.92 nM. Further, in test [5], the Displacement result is “inactive”.

For `COc1cc2nc(N3CCN(c4cccnn4)CC3)nc(N)c2cc1OC`, the Ki in test [3] is on record as 0.4 nM. In addition, in test [5], the Displacement entry is “inactive”. The Reduction is recorded as 20% with Rattus norvegicus [6] and 22% in the test on Rattus norvegicus [4].

For the compound `CCCOc1cc(N2CCN(c3nc(N)c4cc(OC)c(OC)cc4n3)CC2)ncn1`, the Reduction in the test on Rattus norvegicus [2] turned out to be 22%; in the test with Rattus norvegicus [4] it was 39%. The Ki in test [3] stood at 0.36 nM. Moreover, the Displacement entry in test [5] was “inactive”.

On to `COc1nc(OC)nc(N2CCN(c3nc(N)c4cc(OC)c(OC)cc4n3)CC2)n1`, for which the Reduction with Rattus norvegicus [2] stood at 22%; in the test with Rattus norvegicus [4] it was 15%. Moreover, in test [3], the Ki is 0.08 nM. Besides, the Displacement result in test [5] is “inactive”.

In the case of `COc1cc2nc(N3CCN(c4nccc(N(C)C)n4)CC3)nc(N)c2cc1OC`, the results for the Reduction in the test with Rattus norvegicus [2] and with Rattus norvegicus [7] were 13% and 7%, respectively. The compound also yielded a Ki in test [3] of 0.27 nM. Also, the Displacement entry in test [5] was “inactive”.

For `COc1cc2nc(N3CCN(C(=O)c4ccco4)CC3)nc(N)c2cc1OC` [PRAZOSIN], the Reduction worked out at 29% with Rattus norvegicus [2] and 33% in the test on Rattus norvegicus [4].

Consider `COc1cc2nc(N3CCN(c4nccc(-c5ccccc5)n4)CC3)nc(N)c2cc1OC`, for which the Reduction in the test on Rattus norvegicus [2] and with Rattus norvegicus [4] was 17% in each case. Further, the Ki in test [3] is given as 1.66 nM. In test [5], the Displacement entry is “inactive”.

As to `COc1cc2nc(N3CCN(c4cnccn4)CC3)nc(N)c2cc1OC`, the Reduction was determined as 8% with Rattus norvegicus [8] and 7% in the test on Rattus norvegicus [7]. In test [3], this compound returned a Ki of 0.18 nM. Moreover, in test [5], the Displacement result is “inactive”.

Take `COc1cc2nc(N3CCN(c4cc(OC(C)C)ncn4)CC3)nc(N)c2cc1OC`: the Reduction in the test on Rattus norvegicus [2] came to 49%; with Rattus norvegicus [4] it was 55%. Besides, the Ki in test [3] is reported as 0.18 nM. Further, in test [5], the Displacement result was “inactive”.

On to `COc1cc2nc(N3CCN(c4ccc(OC(C)C)nn4)CC3)nc(N)c2cc1OC`, for which the Ki in test [3] came out at 0.29 nM. For the same compound, in test [5], the Displacement entry was “inactive”. The Reduction turned out to be 33% in the test on Rattus norvegicus [6] and 39% with Rattus norvegicus [4].

As to `COc1ccnc(N2CCN(c3nc(N)c4cc(OC)c(OC)cc4n3)CC2)n1`, the Reduction stood at 14% in the test with Rattus norvegicus [2] and 15% in the test on Rattus norvegicus [4]. Further, in test [3], the inhibitory constant (Ki) is recorded as 0.19 nM. Further, the Displacement entry in test [5] is “inactive”.

In the case of `CCCOc1ccnc(N2CCN(c3nc(N)c4cc(OC)c(OC)cc4n3)CC2)n1`, the Reduction was determined as 22% in the test with Rattus norvegicus [2] and 34% with Rattus norvegicus [4]. Also, the Ki in test [3] amounted to 0.32 nM. Besides, in test [5], the Displacement result was “inactive”.

On to `COc1cc2nc(N3CCN(c4nc(Oc5ccccc5)nc(Oc5ccccc5)n4)CC3)nc(N)c2cc1OC`, for which the Reduction with Rattus norvegicus [8] came out at 8%; in the test on Rattus norvegicus [7], 9%. Further, the Ki in test [3] was 0.87 nM. Besides, the Displacement entry in test [5] is “inactive”.

As for `COc1cc2nc(N3CCN(c4ccncn4)CC3)nc(N)c2cc1OC`, in test [3], the inhibition constant (Ki) worked out at 0.27 nM. Also, the Displacement result in test [5] is “inactive”. Besides, the Reduction stood at 12% with Rattus norvegicus [6] and 21% with Rattus norvegicus [4].

Take `COc1cc2nc(N3CCN(c4ccnc(Oc5ccccc5)n4)CC3)nc(N)c2cc1OC`: the results for the Reduction in the test with Rattus norvegicus [2] and in the test on Rattus norvegicus [4] were 24% and 19%, respectively. Further, the inhibitory constant (Ki) in test [3] came to 0.24 nM. Further, in test [5], the Displacement result is “inactive”.

Turning to `COc1cc2nc(N3CCN(c4cc(N(C)C)ncn4)CC3)nc(N)c2cc1OC`, the Reduction in the test on Rattus norvegicus [2] is 18%; with Rattus norvegicus [7], 8%.

Regarding `COc1cc2nc(N3CCN(c4ccnc(N5CCOCC5)n4)CC3)nc(N)c2cc1OC`, the Ki in test [3] was 0.31 nM. Besides, in test [5], the Displacement result was “inactive”. Moreover, the Reduction in the test on Rattus norvegicus [6] is 43%; with Rattus norvegicus [4], 16%.

Take `COc1cc2nc(N3CCN(c4ncccn4)CC3)nc(N)c2cc1OC`: the values for the Reduction with Rattus norvegicus [2] and with Rattus norvegicus [4] were 28% and 40%, respectively. For the same compound, in test [3], the Ki is given as 0.26 nM. The Displacement entry in test [5] was “inactive”.

Take `COc1cc2nc(N3CCN(c4nc(N)nc(N)n4)CC3)nc(N)c2cc1OC`: the values for the Reduction with Rattus norvegicus [2] and in the test with Rattus norvegicus [7] were 12% and 2%, respectively. The same compound had a Ki in test [3] of 0.47 nM. Also, the Displacement result in test [5] was “inactive”.
